Relative leaf area (% of untreated control) and change in vivo data for four compounds are collected here from patent US20150289512A1, “METHOD FOR PROMOTING PLANT GROWTH” (SUMITOMO CHEMICAL COMPANY, LIMITED, priority 2012, published 2015).

Some results are limits rather than exact numbers.

Common to all, as to format: in vivo
Experiment [1] deals with Nicotiana benthamiana. Kind of experiment: Test Example 6: growth promotion under low-temperature stress by hydroponics of Nicotiana benthamiana, 0.1 ppm. Conditions: 0.1 ppm in medium, low-temperature stress 7 days at 1.5±1.0° C., green leaf area 3 days later, equation (1). The protocol:
(§1) Test for Evaluating Growth Promotion Under Low-Temperature Stress by Hydroponics of Nicotiana benthamiana
A DMSO solution, which contained one of the compounds 3, 7, 14, 16, 36, 39, 43, 45, 50, 52, 53, 54, 56, 57, 62, 63, 64, 65, 68, 69, 70, 71, 73, 74, 76, 77, 79, 80, 81, 84, 85, 86 and 87 of the present invention at a concentration of 100 ppm, was prepared. The DMSO solution of the compound of the present invention was added at a volume ratio of 1/1,000 to the Murashige•Scoog medium of a ½-fold concentration for the Murashige•Scoog medium (a medium containing 2.3 g of mixed salts (manufactured by Wako Pure Chemical Industries, Ltd.), 200 mg of Myo-inositol (manufactured by Sigma-Aldrich Co. LLC.), 2 mg of nicotinic acid (manufactured by Wako Pure Chemical Industries, Ltd.), 2 mg of pyridoxine hydrochloride (manufactured by Wako Pure Chemical Industries, Ltd.), 20 mg of thiamine hydrochloride (manufactured by Wako Pure Chemical Industries, Ltd.), 20 g of sucrose (manufactured by Wako Pure Chemical Industries, Ltd.), and 1 g of MES (manufactured by DOJINDO LABORATORIES) per 1 L of water and having pH adjusted to 5.8), thereby preparing a medium containing the compound of the present invention at a concentration of 0.1 ppm.
(§2) Seeds of Nicotiana benthamiana were seeded in the 5 μL of the medium and cultured overnight at 22° C. Thereafter, 45 μL of the medium containing the compound of the present invention at a concentration of 0.1 ppm was added thereto, and the seeds are cultivated for 7 days at 22° C., an illuminance of 4,000 lux, and a day length of 16 hours, and the nursery plants raised from the Nicotiana benthamiana were treated with the compound. Moreover, instead of the above medium a test plot, which was obtained by performing the same treatment by using a medium prepared by adding DMSO to the Murashige•Scoog medium of ½-fold concentration at a volume ratio of 1/1,000, was used as a control plot not treated with the compound.
(§3) The nursery plants of the Nicotiana benthamiana treated with the compound were subjected to low-temperature treatment by being cultivated for 7 days at 1.5±1.0° C., an illuminance of 2,000 lux, and a day length of 16 hours.
The nursery plants of the Nicotiana benthamiana having undergone the low-temperature stress treatment were cultivated for 3 days at 22° C., an illuminance of 4,000 lux, and a day length of 16 hours. Thereafter, the area of green leaf was quantified by Scanalyzer HTS (manufactured by LemnaTec GmbH). Moreover, the value of the control plot not treated with the compound that had not yet been subjected to the low-temperature stress treatment was measured in the same manner. A value of a relative leaf area was calculated based on the following equation (1), and if the value of a relative leaf area was 5 or greater, the compound was evaluated to have a mitigating effect. As a result of the evaluation, it was confirmed that when the plant was treated with one of the compounds 3, 7, 14, 16, 36, 39, 43, 45, 50, 52, 53, 54, 56, 57, 62, 63, 64, 65, 68, 69, 70, 71, 73, 74, 76, 77, 79, 80, 81, 84, 85, 86 and 87 of the present invention at 0.1 ppm, the value of a relative leaf area was 5 or greater, compared to the area of green leaf of the control plot not treated with compound. Accordingly, it was confirmed that the treatment using the compound of the present invention brings about a growth promotion effect.
Relative leaf area=100*(a green area of a plot treated with the compound of the present invention−a green area of a control plot not treated with the compound of the present invention)/(a green area of a control plot not treated with the compound of the present invention that has not yet been subjected to low-temperature stress treatment−green area of a control plot not treated with the compound of the present invention) Equation (1): […]

The subject of experiment [2] is Rice (variety: Nipponbare). Kind of experiment: Test Example 1: promotion of root growth by hydroponics of rice, 10 ppm. The conditions noted are these: Oryza sativa, hydroponic solution containing the test compound at 10 ppm, average of 4 or 5 individuals, read-out: Relative value of length of seminal root (%-untreated control plot). The protocol: (§4) Test for Evaluating Promotion of Root Growth by Hydroponics of Rice
(§5) Rice (variety: Nipponbare)
Rice seeds were soaked in a 1% aqueous sodium hypochlorite solution for 10 minutes, then soaked in a 70% ethanol solution for surface sterilization, and then washed with distilled water. The sterilized seeds were soaked in a hydroponic solution containing the test compound described above at 10 ppm and incubated in a dark place for 3 days at 28° C. to perform treatment for hastening germination.
Thereafter, 30 ml of hydroponic solution containing the test compound at 10 ppm was dispensed in a plastic tube (diameter of 20 mm×height of 113 mm) of which the side was covered with cardboard to block light. A float prepared using a styrene board and vinyl mesh was floated, and the rice seeds that had undergone the treatment for hastening germination were placed on the float on the surface of the hydroponic solution. The seeds were cultivated for 3 days at 26° C., an illuminance of 4,000 lux of the top surface of the tube, a humidity of 50%, and a day length of 16 hours.
(§6) The nursery plants of rice obtained after culturing were measured in terms of the length of seminal root by using WinRHIZO system (manufactured by Regent Instruments Inc). For each test plot, an average of the measured values of the seminal root of 4 or 5 individuals was determined.

The test system of experiment [3] is Nicotiana benthamiana. Kind of experiment: Test Example 5: growth promotion under low-temperature stress by hydroponics of Nicotiana benthamiana, 1 ppm. Conditions: 1 ppm in medium, low-temperature stress 7 days at 1.5±1.0° C., green leaf area 3 days later, equation (1). Here is the method:
as §1
A DMSO solution, which contained one of the compounds 2, 4, 5, 6, 11, 12, 17, 20, 21, 28, 30, 34, 36, 37, 51, 52, 53, 55, 56, 58, 59, 60, 64, 65, 66, 68, 69, 70, 74, 77, 82, 83, 84, 86 and 87 of the present invention at a concentration of 1,000 ppm, was prepared. The DMSO solution of the compound of the present invention was added at a volume ratio of 1/1,000 to the Murashige•Scoog medium of a ½-fold concentration (a medium containing 2.3 g of mixed salts for the Murashige•Scoog medium (manufactured by Wako Pure Chemical Industries, Ltd.), 200 mg of Myo-inositol (manufactured by Sigma-Aldrich Co. LLC.), 2 mg of nicotinic acid (manufactured by Wako Pure Chemical Industries, Ltd.), 2 mg of pyridoxine hydrochloride (manufactured by Wako Pure Chemical Industries, Ltd.), 20 mg of thiamine hydrochloride (manufactured by Wako Pure Chemical Industries, Ltd.), 20 g of sucrose (manufactured by Wako Pure Chemical Industries, Ltd.), and 1 g of MES (manufactured by DOJINDO LABORATORIES) per 1 L of water and having pH adjusted to 5.8), thereby preparing a medium containing the compound of the present invention at a concentration of 1 ppm.
as §2, with “of 1” for “of 0.1”, “are cultured” for “are cultivated”, “above medium,” for “above medium”
as §3
The nursery plants of the Nicotiana benthamiana having undergone the low-temperature stress treatment were cultured for 3 days at 22° C., an illuminance of 4,000 lux, and a day length of 16 hours. Thereafter, the area of green leaf was quantified by Scanalyzer HTS (manufactured by LemnaTec GmbH). Moreover, the value of the control plot not treated with the compound that had not yet been subjected to the low-temperature stress treatment was measured in the same manner. A value of a relative leaf area was calculated based on the following equation (1), and if the value of a relative leaf area was 5 or greater, the compound was evaluated to have a mitigating effect. As a result of the evaluation, it was confirmed that when the plant was treated with one of the compounds 2, 4, 5, 6, 11, 12, 17, 20, 21, 28, 30, 34, 36, 37, 51, 52, 53, 55, 56, 58, 59, 60, 64, 65, 66, 68, 69, 70, 74, 77, 82, 83, 84, 86 and 87 of the present invention at 1 ppm, the value of a relative leaf area was 5 or greater, compared to the area of green leaf of the control plot not treated with compound. Accordingly, it was confirmed that the treatment using the compound of the present invention brings about a growth promotion effect.
Relative leaf area=100*(a green area of a plot treated with the compound of the present invention−a green area of a control plot not treated with the compound of the present invention)/(a green area of a control plot not treated with the compound of the present invention that has not yet been subjected to low-temperature stress treatment−a green area of a control plot not treated with the compound of the present invention) Equation (1): […]

The subject of experiment [4] is Rice (variety: Nipponbare). Kind of experiment: Test Example 3: promotion of root growth by hydroponics of rice, 0.1 ppm. The conditions noted are these: Oryza sativa, hydroponic solution containing the test compound at 0.1 ppm, average of 4 or 5 individuals, read-out: Relative value of length of seminal root (%-untreated control plot). The protocol: as §4, §5
A DMSO solution, which contained one of the compounds 2, 6, 7, 16, 20, 33, 34, 36, 37, 38, 40, 41, 43, 44, 45, 46, 47, 48, 50, 51, 52, 53, 54, 55, 56, 61, 64, 67, 68, 71, 72, 73, 74, 75, 76, 79, 80, 81 and 83 of the present invention at a concentration of 1,000 ppm, was added to Hoagland hydroponic solution (Hoagland and Arnon, California Agricultural Experiment Station 1950 Circular 347 pp. 34) of ¼-fold concentration at a volume ratio of 1/10,000. In this manner, hydroponic solutions containing one of the compounds 2, 6, 7, 16, 20, 33, 34, 36, 37, 38, 40, 41, 43, 44, 45, 46, 47, 48, 50, 51, 52, 53, 54, 55, 56, 61, 64, 67, 68, 71, 72, 73, 74, 75, 76, 79, 80, 81 and 83 of the present invention at 0.1 ppm were prepared respectively. As an untreated control plot, a hydroponic solution obtained by adding DMSO to Hoagland hydroponic solution of ¼-fold concentration at a volume ratio of 1/10,000 was used.
Rice seeds were soaked in a 1% aqueous sodium hypochlorite solution for 10 minutes, then soaked in a 70% ethanol solution for surface sterilization, and then washed with distilled water. The sterilized seeds were soaked in a hydroponic solution containing the test compound described above at 0.1 ppm and incubated in a dark place for 3 days at 28° C. to perform treatment for hastening germination.
Thereafter, 30 ml of hydroponic solution containing the test compound at 0.1 ppm was dispensed in a plastic tube (diameter of 20 mm×height of 113 mm) of which the side was covered with cardboard to block light. A float prepared using a styrene board and vinyl mesh was floated, and the rice seeds that had undergone the treatment for hastening germination were placed on the float on the surface of the hydroponic solution. The seeds were cultivated for 3 days at 26° C., an illuminance of 4,000 lux of the top surface of the tube, a humidity of 50%, and a day length of 16 hours.
as §6

The compound `COC(=O)c1oc2ccccc2c1N` [Compound 57] yielded a relative leaf area (% of untreated control) at 0.1 ppm in the experiment on Nicotiana benthamiana [1] of at least 5%. The change in vivo at 10 ppm in experiment [2] was over 5%.

For `COC(=O)c1oc2ccccc2c1NC(=O)c1ccccc1` [Compound 59], the relative leaf area (% of untreated control) at 1 ppm in the experiment with Nicotiana benthamiana [3] is at least 5%.

The compound `COC(=O)c1oc2ccc(C(F)(F)F)cc2c1NC(=O)c1ccccc1` [Compound 66] had a relative leaf area (% of untreated control) at 1 ppm in the experiment on Nicotiana benthamiana [3] of at least 5%.

On to `COC(=O)c1oc2ccccc2c1NC=O` [Compound 81], for which the change in vivo at 0.1 ppm in experiment [4] was over 5%. Further, the relative leaf area (% of untreated control) at 0.1 ppm in the experiment on Nicotiana benthamiana [1] was at least 5%. The change in vivo at 10 ppm in experiment [2] was over 5%.
